“Also recorded” adds a separate entry of the source. Marks after values point to notes of the source that are not given here.
Experiments:
luciferase (Luc) mRNA [1] = test: Luc expression (total flux) after intramuscular administration; type: in vivo, mice; conditions: for Total flux, 0.001 mpk Dose / Total flux, 0.01 mpk Dose: 6 hours after intramuscular administration; for AUC (p/s * h) / Lipid/MC3 AUC: Table 3H, Luc; for AUC (p/s * h) / Lipid/MC3 AUC / Novel lipid/MC3 expression ratio, 6 hr. time point, i.m. Luc / Fold increase in Luc expression relative to MC3, Intramuscular (0.001 mpk dose) / Fold increase in Luc expression relative to MC3, Intramuscular (0.01 mpk dose): intramuscular; for Novel lipid/MC3 expression ratio, 6 hr. time point, i.m. Luc: relative to MC3 formulation
How it was run: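 Mice given a single intramuscular dose of lipid nanoparticle formulations carrying modified Luc mRNA, alone or with H10 mRNA, at 0.001 or 0.01 mpk total. Luciferase expression recorded as total flux.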

luciferase (Luc) mRNA [2] = test: Luc expression in liver, lung, spleen and femur 6 hours after intravenous administration; type: in vivo; conditions: mice, 0.5 mpk; for Total Flux Femur / Total Flux Liver / Total Flux Lung / Total Flux Spleen: intravenous
How it was run: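 LNP-formulated mRNA given IV to mice (n=3) at 0.5 mpk; at 6 h, bioluminescence imaged ex vivo 15 min after IP D-luciferin (15 mg/mL, 200 μL), organs imaged within 25 min. Values are total flux by region of interest.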

luciferase mRNA = test: Luciferase expression after subcutaneous administration to mice; type: in vivo, female CD-1 mice; conditions: for Novel lipid/MC3 expression ratio, s.c. Luc 0.5 mpk (AUC) / Lipid/MC3 AUC ratio / AUC (luciferase expression): 0.5 mpk; for Lipid/MC3 AUC ratio: luciferase; for AUC (luciferase expression): whole body BLI; for Novel lipid/MC3 ratio, s.c. Luc 6 hr.: relative to MC3, Table 3G
Protocol: The effect of the lipids of the disclosure on protein expression upon subcutaneous administration was studied. Formulations containing lipids of the disclosure and an mRNA expressing luciferase or hEPO were administered subcutaneously to female CD-1 mice at 0.5 mpk. Expression levels were obtained via whole body luminescent imaging (BLI) at 3, 6 and 24 hours after injection and expression levels in liver, spleen and at the injection site were evaluated ex vivo after 24 hours. […] See also Tables 35 and 36, and FIGS. 19 and 27.
Table 35 summarizes the luciferase expression levels using various nanoparticle compositions of the disclosure, and the luciferase expression levels using various nanoparticle compositions of the disclosure as compared to the luciferase expression level using an MC3 formulation after subcutaneous administration, as described above.

Row | SMILES | Total flux, 0.001 mpk Dose (luciferase (Luc) mRNA [1]; Luc mRNA and H10 mRNA) [p/s] | Total flux, 0.01 mpk Dose (luciferase (Luc) mRNA [1]; Luc mRNA and H10 mRNA) [p/s] | Total Flux Femur (luciferase (Luc) mRNA [2]) | Total Flux Liver (luciferase (Luc) mRNA [2]) | Total Flux Lung (luciferase (Luc) mRNA [2]) | Total Flux Spleen (luciferase (Luc) mRNA [2]) | Novel lipid/MC3 expression ratio, 6 hr. time point, s.c. Luc 0.05 mpk (luciferase mRNA; 0.05 mpk, relative to MC3) | AUC (p/s * h) (luciferase (Luc) mRNA [1]) | Lipid/MC3 AUC (luciferase (Luc) mRNA [1]) | Novel lipid/MC3 expression ratio, 6 hr. time point, i.m. Luc (luciferase (Luc) mRNA [1]) | Luc expression upon intramuscular administration (luciferase (Luc) mRNA [1]; Luc mRNA and H10 mRNA, doses of 0.001 and 0.01 mpk, in words) | fold increase in Luc expression over MC3 formulations (luciferase (Luc) mRNA [1]; intramuscular administration, in words) | Fold increase in Luc expression relative to MC3, Intramuscular (0.001 mpk dose) (luciferase (Luc) mRNA [1]) | Fold increase in Luc expression relative to MC3, Intramuscular (0.01 mpk dose) (luciferase (Luc) mRNA [1]) | Novel lipid/MC3 expression ratio, s.c. Luc 0.5 mpk (AUC) (luciferase mRNA; relative to MC3) | Lipid/MC3 AUC ratio (luciferase mRNA) | AUC (luciferase expression) (luciferase mRNA) | Novel lipid/MC3 ratio, s.c. Luc 6 hr. (luciferase mRNA) | Flux in the liver (luciferase (Luc) mRNA [2]; i.v., in words)
1 | CCCCCCCCCOC(=O)CCCCCCCN(CCO)CCCCCC(=O)OC(CCCCCCCC)CCCCCCCC [Compound 27, Nonyl 8-((6-(heptadecan-9-yloxy)-6-oxohexyl)(2-hydroxyethyl)amino) octanoate] | 2.55E+06 | 3.17E+07 | 2.00E+06 | 2.16E+09 | 6.35E+06 | 3.78E+06 | 14.45 | – | – | – | – | – | – | – | – | – | – | – | –
2 | CCCCCCCCCOC(=O)CCCCCCCN(CCO)CCCCCCC(=O)OCC(CCCCCCCC)CCCCCCCC [Compound 143, Nonyl 8-((2-hydroxyethyl)(7-((2-octyldecyl)oxy)-7-oxoheptyl)amino)octanoate] | – | – | – | 1.76E+09 | 3.60E+07 | 1.42E+08 | – | 2.29E+09 | 3.89 | 4.05 | – | – | – | – | – | – | – | – | –
3 | CCCCCCCCCOC(=O)CCCCCCCN(CCCCO)CCCCCCCC(=O)OC(CCCCCCCC)CCCCCCCC [Compound 20, Heptadecan-9-yl 8-((4-hydroxybutyl)(8-(nonyloxy)-8-oxooctyl)amino) octanoate] | 2.59E+07 | – | 1.31E+07 | 1.84E+09 | 2.66E+07 | 1.43E+08 | – | – | – | 2.21 | highest expression at both dose levels; also recorded: equivalent expression to the high dose of MC3 | highest fold increase | 3.70 | 2.21 | (AUC: 4.02) | 4.02 | 6.8926E+10 (p/s) * h | 4.00 | –
4 | CCCCCCCCCOC(=O)CCCCCCCN(CCO)CCCCCCCCCC(=O)OC(CCCCCC)CCCCCC [Compound 147, Tridecan-7-yl 10-((2-hydroxyethyl)(8-(nonyloxy)-8-oxooctyl)amino)decanoate] | – | – | – | 5.24E+09 | 6.73E+06 | 8.57E+07 | – | – | – | – | – | – | – | – | – | – | – | – | –
5 | CCCCCCCCCOC(=O)CCCCCCCN(CCO)CCCCCCCC(=O)OCCCCCCCCC [Compound 138, Dinonyl 8,8′-((2-hydroxyethyl)azanediyl)dioctanoate] | 2.72E+05 | 1.19E+06 | 1.58E+05 | 3.66E+06 | 9.47E+04 | 4.04E+06 | – | – | – | – | – | – | – | – | – | – | – | – | –
6 | CCCCCCCCC(CC)OC(=O)CCCN(CCO)CCCCCCCC(=O)OC(CCCCCCCC)CCCCCCCC (centres unmarked) [Compound 72, Heptadecan-9-yl 8-((2-hydroxyethyl)(4-oxo-4-(undecan-3-yloxy)butyl)amino)octanoate] | – | – | – | 7.97E+08 | 1.05E+07 | 6.40E+06 | – | 6.48E+08 | 1.10 | 1.03 | – | – | – | – | (AUC: 2.01) | 2.01 | 3.4417E+10 (p/s) * h | 2.18 | –
7 | CCCCCCCCCCCCCCN(CCO)CCCCCCCC(=O)OC(CCCCCCCC)CCCCCCCC [Compound 2, Heptadecan-9-yl 8-((2-hydroxyethyl)(tetradecyl)amino)octanoate] | 3.55E+06 | 6.16E+07 | 3.86E+06 | 4.87E+09 | 2.52E+07 | 5.77E+07 | – | – | – | – | – | – | – | – | – | – | – | – | –
8 | CCCCCCCCCOC(=O)CCCCCCCN(CCCCCCCC(=O)OC(CCCCCCCC)CCCCCCCC)C[C@H](C)O [Compound 12, Heptadecan-9-yl (S)-8-((2-hydroxypropyl)(8-(nonyloxy)-8-oxooctyl)amino)octanoate] | 8.02E+04 | 8.90E+05 | – | 6.84E+08 | 7.45E+06 | 6.82E+07 | – | – | – | – | – | – | – | – | – | – | – | – | –
9 | CCCCCCCCC(CCCCCCCC)OC(=O)CCCCCCCN(CCO)CCCCCC [Compound 5, Heptadecan-9-yl 8-(hexyl(2-hydroxyethyl)amino)octanoate] | 9.84E+05 | 3.55E+06 | 1.22E+06 | 5.84E+07 | 1.89E+06 | 1.55E+08 | – | – | – | – | – | – | – | – | – | – | – | – | –
10 | CCCCCCCCC(CCCCCCCC)OC(=O)CCCCCCCN(CCO)CCCCCCCC(=O)OCC1CC1CCCCCC (centres unmarked) [Compound 28, Heptadecan-9-yl 8-((8-((2-hexylcyclopropyl)methoxy)-8-oxooctyl)(2-hydroxyethyl)amino)octanoate] | 6.73E+05 | 5.56E+06 | – | 1.22E+10 | 2.17E+08 | 1.80E+08 | – | – | – | – | – | – | – | – | – | – | – | – | highest
11 | CCCCCCCCCOC(=O)CCCN(CCO)CCCCCCCC(=O)OC(CCCCCCCC)CCCCCCCC [Compound 26, Heptadecan-9-yl 8-((2-hydroxyethyl)(4-(nonyloxy)-4-oxobutyl)amino) octanoate] | 3.90E+06 | 6.13E+07 | 4.67E+06 | 2.90E+09 | 1.18E+07 | 1.56E+07 | – | – | – | – | – | – | 0.56 | 1.39 | – | – | – | – | –
12 | CCCCCCCCCOC(=O)CCCCCCCN(CCO)CCCCCCCC(=O)N(CCCCCCCC)CCCCCCCC [Compound 144, Nonyl 8-((8-(dioctylamino)-8-oxooctyl)(2-hydroxyethyl)amino)octanoate] | 2.72E+06 | 2.18E+07 | 2.44E+06 | 3.75E+08 | 4.81E+06 | 5.11E+07 | – | – | – | – | – | – | – | – | – | – | – | – | –

From patent publication US12263248B2, “Compounds and compositions for intracellular delivery of therapeutic agents” (ModernaTX, Inc., priority 2018, dated 2025)
